In assay [1] the target is T1, recombinant human GABA-T (Homo sapiens, UniProt P80404).
T1 construct: made in house; host or cells: Expi293F human cells, transient transfection
Put plainly: GABA-T inhibition assay, coupled with SSADH, NADPH absorbance at 340 nm (Mixture C). Type of assay: biochemical. The settings on record: for IC50: IC50 for human GABA-T, 10 min preincubation, 25 °C, pH 8.6, 200 µM GABA. The protocol:
(§1) All test samples were prepared at a final volume of 200 µl/well in a 96-well plate with a clear flat bottom, and the enzyme reaction was carried out at 25 °C. The final solution of the assay in Figure 3(B) consisted of SSA (0, 12.5, 25, 50, 100, and 200 µM), 2.5 mM β-NADP^+, 1 mM 2-mercaptoethanol (2-ME), and SSADH (from 20 µL of 1 U/mL gabaculine-treated GABase) in 50 mM K4P2O7 buffer (pH 8.6). The final solution of the assay in Figure 3(C) consisted of GABA (0, 100 and 200 µM), 2.5 mM β-NADP^+, 5 mM α-KG, 1 mM 2-ME and each enzymatic mixture (Mixture A: 10 µL of 1 U/mL GABase; Mixture B: 10 µL of 1 U/mL gabaculine-treated GABase; Mixture C: 2 µg of human GABA-T mixed with 10 µL of 1 U/mL gabaculine-treated GABase) in 50 mM K4P2O7 buffer at pH 8.6. The final solution of the assay in Figure 3(D) consisted of 200 µM GABA, 2.5 mM β-NADP^+, 5 mM α-KG, 1 mM 2-ME, SSADH (from Mixture B) and human GABA-T at various concentrations (0.156, 0.313, 0.625, 1.25, 2.5, 5, and 10 µg/mL) in 50 mM K4P2O7 buffer at pH 8.6. […] The final solution of the assay in Figure 4(A) consisted of gabaculine (0, 15.63, 31.25, 62.5, 125, 250, 500, and 1000 nM), 200 µM GABA, 2.5 mM β-NADP^+, 5 mM α-KG, and each enzymatic mixture (A or C) in 50 mM K4P2O7 buffer (pH 8.6) containing or not containing 1 mM 2-ME. […] The change in 340 nm absorbance at 25 °C caused by the conversion of NADP^+ to NADPH, which is proportional to GABA-T activity, was recorded every 4 min kinetically with SpectraMax iD5 Multi-Mode Microplate Reader (Molecular Devices). GABA-T activity was calculated during the linear phase of the reaction, corrected for background from blanks. All experiments were performed in triplicate and data were presented as mean ± SEM (Standard Error of Mean) or each replicate. Data plotting and regression analysis were performed with GraphPad Prism software (Version 9.1.2, GraphPad Software).

Assay [2] addresses T2, bacterial GABA-T (Pseudomonas fluorescens, UniProt Q4KKA1).
T2 sequence (Q4KKA1 1-425): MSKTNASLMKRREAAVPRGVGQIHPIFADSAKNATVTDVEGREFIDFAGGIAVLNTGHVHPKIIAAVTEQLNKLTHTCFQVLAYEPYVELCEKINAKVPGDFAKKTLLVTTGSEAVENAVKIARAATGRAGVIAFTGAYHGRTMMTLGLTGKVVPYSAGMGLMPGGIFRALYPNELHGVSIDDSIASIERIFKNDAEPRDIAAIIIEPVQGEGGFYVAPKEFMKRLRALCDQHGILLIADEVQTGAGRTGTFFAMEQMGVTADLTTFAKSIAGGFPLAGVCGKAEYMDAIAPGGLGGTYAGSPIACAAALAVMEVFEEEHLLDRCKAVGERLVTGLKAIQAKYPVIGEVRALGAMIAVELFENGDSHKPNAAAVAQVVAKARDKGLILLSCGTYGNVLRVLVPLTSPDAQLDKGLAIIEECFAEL
Put plainly: GABA-T inhibition assay with GABase, NADPH absorbance at 340 nm (Mixture A). The assay is classed as biochemical. The settings on record: for IC50: 10 min preincubation, 25 °C, pH 8.6, 200 µM GABA.
From the text: GABase (Merck, G7509) is a convenient and inexpensive source of SSADH, as it is a commercially available mixture composed of bacterial GABA-T and SSADH obtained from Pseudomonas fluorescens. However, GABase was not able to be used directly in our human GABA-T assay due to the presence of bacterial GABA-T. So we used the bacterial SSADH isolation method as previously described, which allowed large amounts of bacterial SSADH to be isolated quickly and conveniently from GABase by irreversibly inhibiting the bacterial GABA-T activity. Five milligrams of gabaculine (Santa Cruz Biotechnology, sc-200473), a naturally occurring GABA-T irreversible inhibitor, was added to 25 ml of 1 U/mL GABase solution (reconstituted with 50 mM K4P2O7 buffer at pH 8.6), followed by maintaining the reaction at 4 °C for 30 min. The residual gabaculine, which also can inactivate recombinant human GABA-T, was eliminated by dialysis at 4 °C with 2 L of K4P2O7 buffer, changed 3 times per 9 h followed by the final dialysis overnight. The isolated bacterial SSADH was stored at −80 °C for long-term storage.
as §1

Each structure is given as a SMILES string. Read-outs that look alike come from different tables or passages of the source.

This note sets out measurements from publication PMC8439235, “High-yield synthesis and purification of recombinant human GABA transaminase for high-throughput screening assays” (Journal of Enzyme Inhibition and Medicinal Chemistry, 2021).

T1 sequence (P80404 29-500): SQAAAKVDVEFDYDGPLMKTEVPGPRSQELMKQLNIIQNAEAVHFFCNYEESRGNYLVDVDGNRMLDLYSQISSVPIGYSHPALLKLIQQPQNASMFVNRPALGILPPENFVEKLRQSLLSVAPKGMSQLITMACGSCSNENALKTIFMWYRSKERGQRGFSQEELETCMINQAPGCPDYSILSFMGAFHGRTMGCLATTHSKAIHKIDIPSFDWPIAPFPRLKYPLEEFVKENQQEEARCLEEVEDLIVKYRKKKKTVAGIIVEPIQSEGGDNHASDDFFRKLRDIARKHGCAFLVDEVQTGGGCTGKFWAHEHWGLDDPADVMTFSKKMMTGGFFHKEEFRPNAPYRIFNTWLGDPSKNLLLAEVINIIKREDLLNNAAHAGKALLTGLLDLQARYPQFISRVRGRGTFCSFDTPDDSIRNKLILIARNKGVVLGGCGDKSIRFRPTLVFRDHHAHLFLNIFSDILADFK

In general, IC50 refers to the point on the concentration scale where inhibition reaches its midpoint. For the molecule `C=CC(N)CCC(=O)O` (stereo not drawn) [vigabatrin], the “difference in sensitivity, human vs bacterial GABA-T” value in assay [1] (with 2-ME, monomeric form) is on record as 202 fold; in assay [1] (without 2-ME, human homodimeric vs bacterial multimeric form), 70 fold. Further, the IC50 in assay [2] (absence of 2-ME (multimeric form), read-out: IC50 for bacterial GABA-T) was determined as 631 µM; in assay [2] (presence of 1 mM 2-ME (monomeric form), read-out: IC50 for bacterial GABA-T), 14200 µM.

`NC1C=CC=C(C(=O)O)C1` (stereo not drawn) [gabaculine]: the IC50 came to 0.22 µM in assay [1] (absence of 2-ME (homodimeric/multimeric form)); 0.12 µM in assay [1] (presence of 1 mM 2-ME (monomeric form)); 0.19 µM in assay [2] (IC50 for bacterial GABA-T, absence of 2-ME (multimeric form)); 0.13 µM in assay [2] (IC50 for bacterial GABA-T, presence of 1 mM 2-ME (monomeric form)). Further, the “GABA degradation-dependent NADPH synthesis in GABase after treatment” value in assay [2] (5 mg gabaculine in 25 ml of 1 U/mL GABase, 4 °C, 30 min, then dialysis, GABA 0, 100, 200 µM) is “completely impaired”.
